From patent US20260132132A1, “3A,4,5,6-TETRAHYDRO-1 H-PYRAZOLO[3,4-C]PYRIDIN-7(7AH)-ONE DERIVATIVES AS FACTOR XIIA INHIBITORS” (KALVISTA PHARMACEUTICALS LIMITED, priority 2022, published 2026) come the findings set out here.

This assay has as its target T1, Human Factor XIIa (hFXIIa) (Homo sapiens, UniProt P00748).
T1 construct: purchased Enzyme Research Laboratories
T1 sequence (P00748 373-615 limits assumed): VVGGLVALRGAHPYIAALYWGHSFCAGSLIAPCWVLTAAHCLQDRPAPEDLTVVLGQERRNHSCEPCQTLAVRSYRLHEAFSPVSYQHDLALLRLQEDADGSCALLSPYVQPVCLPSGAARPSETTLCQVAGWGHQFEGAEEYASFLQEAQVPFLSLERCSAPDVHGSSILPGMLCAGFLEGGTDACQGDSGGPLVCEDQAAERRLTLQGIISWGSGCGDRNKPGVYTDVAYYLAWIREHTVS
T1 sequence (P00748 20-372 partner limits assumed): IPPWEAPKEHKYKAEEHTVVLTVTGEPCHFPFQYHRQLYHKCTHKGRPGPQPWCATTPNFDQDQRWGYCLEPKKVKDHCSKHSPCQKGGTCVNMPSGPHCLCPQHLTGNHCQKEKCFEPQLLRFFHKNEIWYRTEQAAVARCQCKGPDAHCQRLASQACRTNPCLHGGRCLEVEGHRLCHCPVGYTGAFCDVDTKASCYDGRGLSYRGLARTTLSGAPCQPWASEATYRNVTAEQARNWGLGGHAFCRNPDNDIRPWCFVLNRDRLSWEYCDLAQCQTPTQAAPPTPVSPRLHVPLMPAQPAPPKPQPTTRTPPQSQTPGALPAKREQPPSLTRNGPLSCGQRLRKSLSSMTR
The assay can be described thus: Determination of Human Factor XIIa (hFXIIa) inhibition, fluorogenic substrate IC50 assay. The format is biochemical. The conditions noted are these: fluorogenic substrate H-DPro-Phe-Arg-AFC at Km, 25° C., read-out: Human FXIIa IC50. The protocol: Determination of Human Factor XIIa (hFXIIa) inhibition
The Km for the cleavage of the substrate by hFXIIa was determined by standard transformation of the Michaelis-Menten equation, with subsequent inhibition assays performed at substrate Km concentration.

What is called IC50 is the point on the concentration scale where inhibition reaches its midpoint. As to `C[C@@H](NC(=O)c1nn(-c2cccc(Cl)c2)c2c1CCN(c1ccc3c(c1)C(=O)N(C)CC3)C2=O)c1cccnc1` [Example 1214, (R)-1-(3-chlorophenyl)-6-(2-methyl-1-oxo-1,2,3,4-tetrahydroisoquinolin-7-yl)-7-oxo-N-(1-(pyridin-3-yl)ethyl)-4,5,6,7-tetrahydro-1H-pyrazolo[3,4-c]pyridine-3-carboxamide], the IC50 lay within 300 to 1000 nM. In the case of `O=C(NCC1CC1)c1nn(-c2cccc(Cl)c2)c2c1CCN(c1ccc3c(c1)C(=O)N(CC1CCCO1)CC3)C2=O` (stereo not shown) [Example 1292, 1-(3-chlorophenyl)-N-(cyclopropylmethyl)-7-oxo-6-(1-oxo-2-((tetrahydrofuran-2-yl)methyl)-1,2,3,4-tetrahydroisoquinolin-7-yl)-4,5,6,7-tetrahydro-1H-pyrazolo[3,4-c]pyridine-3-carboxamide] it was 300 to 1000 nM; in that of `CN1CCc2ccc(N3CCc4c(C(=O)NCC56CC(CO)(CCO5)C6)nn(-c5cccc(Cl)c5)c4C3=O)cc2C1=O` [Example 1283, 1-(3-chlorophenyl)-N-((5-(hydroxymethyl)-2-oxabicyclo[3.1.1]heptan-1-yl)methyl)-6-(2-methyl-1-oxo-1,2,3,4-tetrahydroisoquinolin-7-yl)-7-oxo-4,5,6,7-tetrahydro-1H-pyrazolo[3,4-c]pyridine-3-carboxamide], 300 to 1000 nM.

For the compound `CCN1CCc2ccc(N3CCc4c(C(=O)NCc5cc(C)n[nH]5)nn(-c5cccc(Cl)c5)c4C3=O)cc2C1` [Example 1086, 1-(3-chlorophenyl)-6-(2-ethyl-1,2,3,4-tetrahydroisoquinolin-7-yl)-N-((3-methyl-1H-pyrazol-5-yl)methyl)-7-oxo-4,5,6,7-tetrahydro-1H-pyrazolo[3,4-c]pyridine-3-carboxamide], the concentration for half-maximal inhibition (IC50) lay within 100 to 300 nM.

As to `O=C(NCc1ccccc1)c1nn(-c2cccc(Cl)c2)c2c1CCN(c1ccc3c(c1)CN(CCO)CC3)C2=O` [Example 1107, N-benzyl-1-(3-chlorophenyl)-6-(2-(2-hydroxyethyl)-1,2,3,4-tetrahydroisoquinolin-7-yl)-7-oxo-4,5,6,7-tetrahydro-1H-pyrazolo[3,4-c]pyridine-3-carboxamide], the IC50 was 10 to 100 nM. In the case of `Cc1ccncc1CNC(=O)c1nn(-c2cccc(Cl)c2)c2c1CCN(c1cnc3c(c1)C(=O)N(C)CC3)C2=O` [Example 1302, 1-(3-chlorophenyl)-6-(6-methyl-5-oxo-5,6,7,8-tetrahydro-1,6-naphthyridin-3-yl)-N-((4-methylpyridin-3-yl)methyl)-7-oxo-4,5,6,7-tetrahydro-1H-pyrazolo[3,4-c]pyridine-3-carboxamide] it was 300 to 1000 nM; in that of `CCN(CC)C(=O)c1cccc(N2CCc3c(C(=O)NCC4CC4)nn(-c4cccc(Cl)c4)c3C2=O)c1` [Example 1286, 1-(3-chlorophenyl)-N-(cyclopropylmethyl)-6-(3-(diethylcarbamoyl)phenyl)-7-oxo-4,5,6,7-tetrahydro-1H-pyrazolo[3,4-c]pyridine-3-carboxamide], 10000 to 40000 nM. As to `CC1(C)OCCC1NC(=O)c1nn(-c2cccc(Cl)c2)c2c1CCN(c1cccc(CN3CCCCC3)c1)C2=O` (stereo not shown) [Example 1164, 1-(3-chlorophenyl)-N-(2,2-dimethyltetrahydrofuran-3-yl)-7-oxo-6-(3-(piperidin-1-ylmethyl)phenyl)-4,5,6,7-tetrahydro-1H-pyrazolo[3,4-c]pyridine-3-carboxamide], the IC50 was 300 to 1000 nM.

`O=C(NCC1CC1)c1nn(-c2cccc(Cl)c2)c2c1CCN(c1ccc3c(c1)C(=O)N(CCO)CCO3)C2=O` [Example 1289, 1-(3-chlorophenyl)-N-(cyclopropylmethyl)-6-(4-(2-hydroxyethyl)-5-oxo-2,3,4,5-tetrahydrobenzo[f][1,4]oxazepin-7-yl)-7-oxo-4,5,6,7-tetrahydro-1H-pyrazolo[3,4-c]pyridine-3-carboxamide]: the concentration for half-maximal inhibition (IC50) fell in the range of 100 to 300 nM. In the case of `CN(C)C(=O)c1ccnc(N2CCc3c(C(=O)NCC4CC4)nn(-c4cccc(Cl)c4)c3C2=O)c1` [Example 1273, 1-(3-chlorophenyl)-N-(cyclopropylmethyl)-6-(4-(dimethylcarbamoyl)pyridin-2-yl)-7-oxo-4,5,6,7-tetrahydro-1H-pyrazolo[3,4-c]pyridine-3-carboxamide] it was 3000 to 10000 nM; in that of `CN1CCc2ccc(N3CCc4c(C(=O)NCC56COC(CO)(C5)C6)nn(-c5cccc(Cl)c5)c4C3=O)cc2C1` [Example 1050, 1-(3-chlorophenyl)-N-((1-(hydroxymethyl)-2-oxabicyclo[2.1.1]hexan-4-yl)methyl)-6-(2-methyl-1,2,3,4-tetrahydroisoquinolin-7-yl)-7-oxo-4,5,6,7-tetrahydro-1H-pyrazolo[3,4-c]pyridine-3-carboxamide], 300 to 1000 nM. In the case of `O=C1CC[C@@H](CN2CCc3ccc(N4CCc5c(C(=O)NCC6CC6)nn(-c6cccc(Cl)c6)c5C4=O)cc3C2)N1` [Example 1124, (S)-1-(3-chlorophenyl)-N-(cyclopropylmethyl)-7-oxo-6-(2-((5-oxopyrrolidin-2-yl)methyl)-1,2,3,4-tetrahydroisoquinolin-7-yl)-4,5,6,7-tetrahydro-1H-pyrazolo[3,4-c]pyridine-3-carboxamide] it was 300 to 1000 nM; in that of `CN1Cc2ccc(N3CCc4c(C(=O)NCc5ccccc5)nn(-c5cccc(Cl)c5)c4C3=O)cc2C1` [Example 1028, N-benzyl-1-(3-chlorophenyl)-6-(2-methylisoindolin-5-yl)-7-oxo-4,5,6,7-tetrahydro-1H-pyrazolo[3,4-c]pyridine-3-carboxamide], 300 to 1000 nM. The figure for `CC(=O)NCCN1CCc2ccc(N3CCc4c(C(=O)NCC5CC5)nn(-c5cccc(Cl)c5)c4C3=O)cc2C1` [Example 1081, 6-(2-(2-acetamidoethyl)-1,2,3,4-tetrahydroisoquinolin-7-yl)-1-(3-chlorophenyl)-N-(cyclopropylmethyl)-7-oxo-4,5,6,7-tetrahydro-1H-pyrazolo[3,4-c]pyridine-3-carboxamide] is 300 to 1000 nM. Regarding `CN1C(=O)C(C)(C)c2ccc(N3CCc4c(C(=O)NCC5CC5)nn(-c5cccc(Cl)c5)c4C3=O)cc21` [Example 1277, 1-(3-chlorophenyl)-N-(cyclopropylmethyl)-7-oxo-6-(1,3,3-trimethyl-2-oxoindolin-6-yl)-4,5,6,7-tetrahydro-1H-pyrazolo[3,4-c]pyridine-3-carboxamide], the half-inhibitory concentration (IC50) is 10000 to 40000 nM. In the case of `COc1ccc(-n2nc(C(=O)NCc3cnccc3C)c3c2C(=O)N(c2ccc4c(c2)CN(CCO)CC4)CC3)cc1` [Example 2003, 6-(2-(2-hydroxyethyl)-1,2,3,4-tetrahydroisoquinolin-7-yl)-1-(4-methoxyphenyl)-N-((4-methylpyridin-3-yl)methyl)-7-oxo-4,5,6,7-tetrahydro-1H-pyrazolo[3,4-c]pyridine-3-carboxamide] it was 300 to 1000 nM. The figure for `O=C1CC[C@H](CN2CCc3ccc(N4CCc5c(C(=O)NCC6CC6)nn(-c6cccc(Cl)c6)c5C4=O)cc3C2)N1` [Example 1120, (R)-1-(3-chlorophenyl)-N-(cyclopropylmethyl)-7-oxo-6-(2-((5-oxopyrrolidin-2-yl)methyl)-1,2,3,4-tetrahydroisoquinolin-7-yl)-4,5,6,7-tetrahydro-1H-pyrazolo[3,4-c]pyridine-3-carboxamide] is 300 to 1000 nM. Take `Cc1cc(CNC(=O)c2nn(-c3cccc(Cl)c3)c3c2CCN(c2ccc4c(c2)N(C)C(=O)C4(C)C)C3=O)nn1C` [Example 1276, 1-(3-chlorophenyl)-N-((1,5-dimethyl-1H-pyrazol-3-yl)methyl)-7-oxo-6-(1,3,3-trimethyl-2-oxoindolin-6-yl)-4,5,6,7-tetrahydro-1H-pyrazolo[3,4-c]pyridine-3-carboxamide]: the half-maximal inhibitory concentration (IC50) lay within 3000 to 10000 nM.

Consider `CCNC(=O)c1nn(-c2cccc(Cl)c2)c2c1CCN(c1ccc3c(c1)C(=O)N(C)CC3)C2=O` [Example 1297, 1-(3-chlorophenyl)-N-ethyl-6-(2-methyl-1-oxo-1,2,3,4-tetrahydroisoquinolin-7-yl)-7-oxo-4,5,6,7-tetrahydro-1H-pyrazolo[3,4-c]pyridine-3-carboxamide], for which the 50% inhibitory concentration (IC50) lay in the range of 300 to 1000 nM.

For `CN1CCc2ncc(N3CCc4c(C(=O)NCC5CC5)nn(-c5cccc(Cl)c5)c4C3=O)cc2C1=O` [Example 1301, 1-(3-chlorophenyl)-N-(cyclopropylmethyl)-6-(6-methyl-5-oxo-5,6,7,8-tetrahydro-1,6-naphthyridin-3-yl)-7-oxo-4,5,6,7-tetrahydro-1H-pyrazolo[3,4-c]pyridine-3-carboxamide], the IC50 lay in the range of 1000 to 3000 nM. The figure for `CCNC(=O)c1nn(-c2cnc(N)c(Cl)c2)c2c1CCN(c1ccc3c(c1)C(=O)N(C)CC3)C2=O` [Example 2031, 1-(6-amino-5-chloropyridin-3-yl)-N-ethyl-6-(2-methyl-1-oxo-1,2,3,4-tetrahydroisoquinolin-7-yl)-7-oxo-4,5,6,7-tetrahydro-1H-pyrazolo[3,4-c]pyridine-3-carboxamide] is greater than 4000 nM. In the case of `CCOC(=O)c1nn(-c2cccc(C)n2)c2c1CCN(c1ccc3c(c1)C(=O)N(C)CC3)C2=O` [Example 2023, ethyl 6-(2-methyl-1-oxo-1,2,3,4-tetrahydroisoquinolin-7-yl)-1-(6-methylpyridin-2-yl)-7-oxo-4,5,6,7-tetrahydro-1H-pyrazolo[3,4-c]pyridine-3-carboxylate] it was 300 to 1000 nM.
